Data published in ChEMBL document CHEMBL1629662, “Antimicrobial activity of prulifloxacin tested against a worldwide collection of gastroenteritis-producing pathogens, including those causing traveler's diarrhea” (2009).
In brackets after ≈: the same amount, converted by molar mass.

Key:
Shigella sonnei [1] = test: Antibacterial activity against Shigella sonnei assessed as percent resistant isolates by broth microdilution method; type: functional; conditions: pooled result: one value given for 4 cell lines, strains, targets or settings
Aeromonas veronii [2] = test: Antibacterial activity against Aeromonas veronii assessed as percent susceptible isolates by broth microdilution method; type: functional
Aeromonas hydrophila [3] = test: Antibacterial activity against Aeromonas hydrophila by broth microdilution method; type: functional
Salmonella typhi = test: Antibacterial activity against Salmonella enterica serovar Typhi by broth microdilution method; type: functional, Salmonella enterica subsp. enterica serovar Typhi
Aeromonas sobria [4] = test: Antibacterial activity against Aeromonas sobria assessed as percent susceptible isolates by broth microdilution method; type: functional
Vibrio parahaemolyticus [5] = test: Antibacterial activity against Vibrio parahaemolyticus assessed as percent resistant isolates by broth microdilution method; type: functional
[6] = Antibacterial activity against Salmonella enterica serovar Heidelberg by broth microdilution method; type: functional, Salmonella enterica subsp. enterica serovar Heidelberg
Campylobacter coli = test: Antibacterial activity against Campylobacter coli by broth microdilution method; type: functional
Escherichia coli [7] = test: Antibacterial activity against Escherichia coli assessed as percent resistant isolates by broth microdilution method; type: functional
Vibrio alginolyticus [8] = test: Antibacterial activity against Vibrio alginolyticus assessed as percent susceptible isolates by broth microdilution method; type: functional
Plesiomonas shigelloides [9] = test: Antibacterial activity against Plesiomonas shigelloides assessed as percent susceptible isolates by broth microdilution method; type: functional
Aeromonas sobria [10] = test: Antibacterial activity against Aeromonas sobria by broth microdilution method; type: functional
Yersinia enterocolitica [11] = test: Antibacterial activity against Yersinia enterocolitica assessed as percent susceptible isolates by broth microdilution method; type: functional
Shigella sonnei [12] = test: Antibacterial activity against Shigella sonnei by broth microdilution method; type: functional
Vibrio cholerae [13] = test: Antibacterial activity against Vibrio cholerae assessed as percent resistant isolates by broth microdilution method; type: functional
[14] = Antibacterial activity against Salmonella enterica serovar Virchow by broth microdilution method; type: functional, Salmonella enterica subsp. enterica serovar Virchow
Vibrio parahaemolyticus [15] = test: Antibacterial activity against Vibrio parahaemolyticus assessed as percent susceptible isolates by broth microdilution method; type: functional
Escherichia coli [16] = test: Antibacterial activity against Escherichia coli by broth microdilution method; type: functional
Vibrio sp. [17] = test: Antibacterial activity against Vibrio sp. assessed as percent susceptible isolates by broth microdilution method; type: functional
Shigella flexneri = test: Antibacterial activity against Shigella flexneri by broth microdilution method; type: functional
Salmonella typhimurium [18] = test: Antibacterial activity against Salmonella enterica serovar Typhimurium assessed as percent resistant isolates by broth microdilution method; type: functional, Salmonella enterica subsp. enterica serovar Typhimurium; conditions: pooled result: one value given for 8 cell lines, strains, targets or settings
Aeromonas caviae [19] = test: Antibacterial activity against Aeromonas caviae by broth microdilution method; type: functional
Aeromonas hydrophila [20] = test: Antibacterial activity against Aeromonas hydrophila assessed as percent susceptible isolates by broth microdilution method; type: functional
Shigella boydii [21] = test: Antibacterial activity against Shigella boydii assessed as percent susceptible isolates by broth microdilution method; type: functional; conditions: pooled result: one value given for 3 cell lines, strains, targets or settings
Salmonella typhimurium [22] = test: Antibacterial activity against Salmonella enterica serovar Typhimurium by broth microdilution method; type: functional, Salmonella enterica subsp. enterica serovar Typhimurium
Vibrio fluvialis [23] = test: Antibacterial activity against Vibrio fluvialis assessed as percent resistant isolates by broth microdilution method; type: functional
Vibrio parahaemolyticus [24] = test: Antibacterial activity against Vibrio parahaemolyticus by broth microdilution method; type: functional
Salmonella enteritidis [25] = test: Antibacterial activity against Salmonella enterica serovar Enteritidis by broth microdilution method; type: functional, Salmonella enterica subsp. enterica serovar Enteritidis
[26] = Antibacterial activity against Salmonella enterica serovar Newport by broth microdilution method; type: functional, Salmonella enterica subsp. enterica serovar Newport
Vibrio sp. [27] = test: Antibacterial activity against Vibrio sp. by broth microdilution method; type: functional
Escherichia coli [28] = test: Antibacterial activity against Escherichia coli assessed as percent susceptible isolates by broth microdilution method; type: functional
Vibrio vulnificus [29] = test: Antibacterial activity against Vibrio vulnificus assessed as percent susceptible isolates by broth microdilution method; type: functional
Aeromonas sobria [30] = test: Antibacterial activity against Aeromonas sobria assessed as percent resistant isolates by broth microdilution method; type: functional
Vibrio alginolyticus [31] = test: Antibacterial activity against Vibrio alginolyticus by broth microdilution method; type: functional
Vibrio fluvialis [32] = test: Antibacterial activity against Vibrio fluvialis by broth microdilution method; type: functional
Shigella dysenteriae = test: Antibacterial activity against Shigella dysenteriae by broth microdilution method; type: functional
Plesiomonas shigelloides [33] = test: Antibacterial activity against Plesiomonas shigelloides assessed as percent resistant isolates by broth microdilution method; type: functional
Vibrio cholerae [34] = test: Antibacterial activity against Vibrio cholerae assessed as percent susceptible isolates by broth microdilution method; type: functional
Aeromonas caviae [35] = test: Antibacterial activity against Aeromonas caviae assessed as percent resistant isolates by broth microdilution method; type: functional
Yersinia enterocolitica [36] = test: Antibacterial activity against Yersinia enterocolitica by broth microdilution method; type: functional
Vibrio cholerae [37] = test: Antibacterial activity against Vibrio cholerae by broth microdilution method; type: functional
Vibrio sp. [38] = test: Antibacterial activity against Vibrio sp. assessed as percent resistant isolates by broth microdilution method; type: functional
Campylobacter jejuni = test: Antibacterial activity against Campylobacter jejuni by broth microdilution method; type: functional
Vibrio alginolyticus [39] = test: Antibacterial activity against Vibrio alginolyticus assessed as percent resistant isolates by broth microdilution method; type: functional
Salmonella enteritidis [40] = test: Antibacterial activity against Salmonella enterica serovar Enteritidis assessed as percent susceptible isolates by broth microdilution method; type: functional, Salmonella enterica subsp. enterica serovar Enteritidis; conditions: pooled result: one value given for 5 cell lines, strains, targets or settings
Plesiomonas shigelloides [41] = test: Antibacterial activity against Plesiomonas shigelloides by broth microdilution method; type: functional
[42] = test system: Yersinia pseudotuberculosis; test: Antibacterial activity against Yersinia pseudotuberculosis by broth microdilution method; type: functional
Aeromonas hydrophila [43] = test: Antibacterial activity against Aeromonas hydrophila assessed as percent resistant isolates by broth microdilution method; type: functional
Salmonella paratyphi = test: Antibacterial activity against Salmonella enterica serovar Paratyphi by broth microdilution method; type: functional, Salmonella enterica subsp. enterica serovar Paratyphi A
Vibrio fluvialis [44] = test: Antibacterial activity against Vibrio fluvialis assessed as percent susceptible isolates by broth microdilution method; type: functional
Aeromonas veronii [45] = test: Antibacterial activity against Aeromonas veronii assessed as percent resistant isolates by broth microdilution method; type: functional
Shigella boydii [46] = test: Antibacterial activity against Shigella boydii by broth microdilution method; type: functional
Vibrio vulnificus [47] = test: Antibacterial activity against Vibrio vulnificus by broth microdilution method; type: functional
Vibrio vulnificus [48] = test: Antibacterial activity against Vibrio vulnificus assessed as percent resistant isolates by broth microdilution method; type: functional
Yersinia enterocolitica [49] = test: Antibacterial activity against Yersinia enterocolitica assessed as percent resistant isolates by broth microdilution method; type: functional
Aeromonas caviae [50] = test: Antibacterial activity against Aeromonas caviae assessed as percent susceptible isolates by broth microdilution method; type: functional
Aeromonas veronii [51] = test: Antibacterial activity against Aeromonas veronii by broth microdilution method; type: functional
[52] = test system: Yersinia pseudotuberculosis; test: Antibacterial activity against Yersinia pseudotuberculosis assessed as percent susceptible isolates by broth microdilution method; type: functional

CC1(C)S[C@@H]2[C@H](NC(=O)[C@H](N)c3ccccc3)C(=O)N2[C@H]1C(=O)O [AMPICILLIN]
Activity (Shigella sonnei [1]): 59.4%
Activity (Aeromonas veronii [2]): 1%
MIC50 (Aeromonas hydrophila [3]): > 256 µg/mL
MIC90 (Aeromonas hydrophila [3]): > 256 µg/mL
MIC90 (Salmonella typhi): > 256 µg/mL
Activity (Aeromonas sobria [4]): 1%
Activity (Vibrio parahaemolyticus [5]): 0%
MIC90 [6]: > 256 µg/mL
MIC50 (Campylobacter coli): 2 µg/mL (≈ 5.72 µM)
MIC90 (Campylobacter coli): 32 µg/mL (≈ 91.6 µM)
Activity (Escherichia coli [7]): 37%
Activity (Vibrio alginolyticus [8]): 90%
Activity (Plesiomonas shigelloides [9]): 0%
MIC50 (Aeromonas sobria [10]): > 256 µg/mL
MIC90 (Aeromonas sobria [10]): > 256 µg/mL
Activity (Yersinia enterocolitica [11]): 6.5%
MIC50 (Shigella sonnei [12]): 128 µg/mL (≈ 366 µM)
MIC90 (Shigella sonnei [12]): > 256 µg/mL
Activity (Vibrio cholerae [13]): 0%
MIC90 [14]: > 256 µg/mL
Activity (Vibrio parahaemolyticus [15]): 90%
MIC50 (Escherichia coli [16]): 2 µg/mL (≈ 5.72 µM)
MIC90 (Escherichia coli [16]): > 256 µg/mL
Activity (Vibrio sp. [17]): 90%
MIC50 (Shigella flexneri): 128 µg/mL (≈ 366 µM)
MIC90 (Shigella flexneri): > 256 µg/mL
Activity (Salmonella typhimurium [18]): 22.8%
MIC50 (Aeromonas caviae [19]): > 256 µg/mL
MIC90 (Aeromonas caviae [19]): > 256 µg/mL
Activity (Aeromonas hydrophila [20]): 1%
Activity (Shigella boydii [21]): 40.6%
MIC50 (Salmonella typhimurium [22]): 1 µg/mL (≈ 2.86 µM)
MIC90 (Salmonella typhimurium [22]): > 256 µg/mL
Activity (Vibrio fluvialis [23]): 0%
MIC50 (Vibrio parahaemolyticus [24]): 2 µg/mL (≈ 5.72 µM)
MIC90 (Vibrio parahaemolyticus [24]): 8 µg/mL (≈ 22.9 µM)
MIC50 (Salmonella enteritidis [25]): 1 µg/mL (≈ 2.86 µM)
MIC90 (Salmonella enteritidis [25]): > 256 µg/mL
MIC90 [26]: > 256 µg/mL
MIC50 (Vibrio sp. [27]): 2 µg/mL (≈ 5.72 µM)
MIC90 (Vibrio sp. [27]): 8 µg/mL (≈ 22.9 µM)
Activity (Escherichia coli [28]): 63%
Activity (Vibrio vulnificus [29]): 90%
Activity (Aeromonas sobria [30]): 98%
MIC50 (Vibrio alginolyticus [31]): 2 µg/mL (≈ 5.72 µM)
MIC90 (Vibrio alginolyticus [31]): 8 µg/mL (≈ 22.9 µM)
MIC50 (Vibrio fluvialis [32]): 2 µg/mL (≈ 5.72 µM)
MIC90 (Vibrio fluvialis [32]): 8 µg/mL (≈ 22.9 µM)
MIC50 (Shigella dysenteriae): 128 µg/mL (≈ 366 µM)
MIC90 (Shigella dysenteriae): > 256 µg/mL
Activity (Plesiomonas shigelloides [33]): 100%
Activity (Vibrio cholerae [34]): 90%
Activity (Aeromonas caviae [35]): 98%
MIC50 (Yersinia enterocolitica [36]): 32 µg/mL (≈ 91.6 µM)
MIC90 (Yersinia enterocolitica [36]): 32 µg/mL (≈ 91.6 µM)
MIC50 (Vibrio cholerae [37]): 2 µg/mL (≈ 5.72 µM)
MIC90 (Vibrio cholerae [37]): 8 µg/mL (≈ 22.9 µM)
Activity (Vibrio sp. [38]): 0%
MIC50 (Campylobacter jejuni): 2 µg/mL (≈ 5.72 µM)
MIC90 (Campylobacter jejuni): 32 µg/mL (≈ 91.6 µM)
Activity (Vibrio alginolyticus [39]): 0%
Activity (Salmonella enteritidis [40]): 77.2%
MIC (Plesiomonas shigelloides [41]): 64 µg/mL (≈ 183 µM)
MIC50 (Plesiomonas shigelloides [41]): 64 µg/mL (≈ 183 µM)
MIC50 [42]: 32 µg/mL (≈ 91.6 µM)
MIC90 [42]: 32 µg/mL (≈ 91.6 µM)
Activity (Aeromonas hydrophila [43]): 98%
MIC90 (Salmonella paratyphi): > 256 µg/mL
Activity (Vibrio fluvialis [44]): 90%
Activity (Aeromonas veronii [45]): 98%
MIC50 (Shigella boydii [46]): 128 µg/mL (≈ 366 µM)
MIC90 (Shigella boydii [46]): > 256 µg/mL
MIC50 (Vibrio vulnificus [47]): 2 µg/mL (≈ 5.72 µM)
MIC90 (Vibrio vulnificus [47]): 8 µg/mL (≈ 22.9 µM)
Activity (Vibrio vulnificus [48]): 0%
Activity (Yersinia enterocolitica [49]): 91.3%
Activity (Aeromonas caviae [50]): 1%
MIC50 (Aeromonas veronii [51]): > 256 µg/mL
MIC90 (Aeromonas veronii [51]): > 256 µg/mL
Activity [52]: 6.5%
